Measured values taken from patent USRE47689E1, “Compounds for treating spinal muscular atrophy” (PTC Therapeutics, Inc., priority 2011, dated 2019).
Counter-ions that a name gives are not always drawn.

Key:
[1] = system: SMN2 minigene (full length SMN2 minigene mRNA containing SMN2 exon 7); test: SMN2 minigene mRNA splicing RT-qPCR assay in cultured cells; assay type: cell-based, human; conditions: Homo sapiens, HEK293-H; HEK293H cells stably transfected with SMN2-A minigene; 24 hours; 7-point concentration curve; 1.5-fold relative to vehicle-treated cells; read-out: EC1.5x for production of full length SMN2 mRNA
How it was run: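 Read-out: full-length (exon 7-included) SMN2 minigene mRNA by multiplex RT-qPCR with GAPDH, efficiency-corrected (1+E)^−Ct, GAPDH-normalized and divided by vehicle. Stably transfected HEK293H cells, 24 h compound exposure, duplicates per concentration. Value is EC1.5x, reported as star ranges.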

Smn protein = Smn protein assay in cultured cells (SMN HTRF); assay type: cell-based, human; conditions: 48 hours; for EC1.5x (concentration giving 1.5-fold Smn protein increase): SMA Type 1 patient fibroblast cells (GM03813), 7-point concentration curve, SMN HTRF, concentration producing 1.5 times Smn protein vs DMSO vehicle control, read-out: EC1.5x for Smn protein expression; for maximum fold (Fold) increase of Smn protein: SMA patient fibroblast cells, 7-point concentration data, fold increase relative to vehicle control (SMN HTRF)
How it was run: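 Lysates in RIPA with protease inhibitors are incubated overnight at room temperature with HTRF anti-SMN antibodies. EC1.5x is derived from fold increase in ΔF over vehicle.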

Cc1nc2ccc(-c3cc4ccc(N5CCN[C@@H](C)C5)cc4oc3=O)cc2s1 [Compound 770, 3-(2-methyl-1,3-benzothiazol-6-yl)-7-[(3S)-3-methylpiperazin-1-yl]-2H-chromen-2-one]
EC (1.5-fold) [1]: < 0.1 µM
EC1.5x (concentration giving 1.5-fold Smn protein increase) (Smn protein): < 300 nM
maximum fold (Fold) increase of Smn protein (Smn protein): **** (fold increase between >1.5 and ≤1.65)

Cc1cn2cc(-c3cc4ccc(N5CCN(C)CC5)cc4oc3=O)nc2c(C)n1 [Compound 516, 3-(6,8-dimethylimidazo[1,2-a]pyrazin-2-yl)-7-(4-methylpiperazin-1-yl)-2H-chromen-2-one]
EC (1.5-fold) [1]: < 0.1 µM
EC1.5x (concentration giving 1.5-fold Smn protein increase) (Smn protein): < 300 nM
maximum fold (Fold) increase of Smn protein (Smn protein): ***** (fold increase >1.65)

Cc1cc2cc(-c3cc4ccc(N5CCN(CC6CC6)CC5)cc4oc3=O)oc2c(C)n1 [Compound 816, 7-[4-(cyclopropylmethyl)piperazin-1-yl]-3-(5,7-dimethylfuro[2,3-c]pyridin-2-yl)-2H-chromen-2-one]
EC (1.5-fold) [1]: < 0.1 µM
EC1.5x (concentration giving 1.5-fold Smn protein increase) (Smn protein): 300 to 1000 nM
maximum fold (Fold) increase of Smn protein (Smn protein): **** (fold increase between >1.5 and ≤1.65)

CN1CCN(c2ccc3cc(-c4ccnc(C5CC5)n4)c(=O)oc3c2)CC1 [Compound 298, 3-(2-cyclopropylpyrimidin-4-yl)-7-(4-methylpiperazin-1-yl)-2H-chromen-2-one]
EC (1.5-fold) [1]: 1 to 3 µM
maximum fold (Fold) increase of Smn protein (Smn protein): * (maximum fold increase of ≤1.2)

Cc1cccc2oc(-c3cc4ccc(N5CCNCC5)cc4oc3=O)nc12.Cl [Compound 22, 3-(4-methyl-1,3-benzoxazol-2-yl)-7-(piperazin-1-yl)-2H-chromen-2-one hydrochloride]
EC (1.5-fold) [1]: 3 to 30 µM
maximum fold (Fold) increase of Smn protein (Smn protein): * (maximum fold increase of ≤1.2)

O=c1oc2cc(N3C[C@@H]4C[C@H]3CN4)ccc2cc1-c1cn2cccnc2n1 [Compound 129, 7-[(1S,4S)-2,5-diazabicyclo[2.2.1]hept-2-yl]-3-(imidazo[1,2a]pyrimidin-2-yl)-2H-chromen-2-one hydrochloride (1:3)]
EC (1.5-fold) [1]: 0.3 to 1 µM
maximum fold (Fold) increase of Smn protein (Smn protein): ** (fold increase between >1.2 and ≤1.35)

Cc1cn2cc(-c3cc4ccc(N5CCN(C)CC5)cc4oc3=O)cc(F)c2n1 [Compound 982, 3-(8-fluoro-2-methylimidazo[1,2-a]pyridin-6-yl)-7-(4-methylpiperazin-1-yl)-2H-chromen-2-one]
EC (1.5-fold) [1]: < 0.1 µM
EC1.5x (concentration giving 1.5-fold Smn protein increase) (Smn protein): < 300 nM
maximum fold (Fold) increase of Smn protein (Smn protein): ***** (fold increase >1.65)

Cc1cn2cc(-c3cc4ccc(N5CCNCC5)cc4oc3=O)cc(F)c2n1 [Compound 986, 3-(8-fluoro-2-methylimidazo[1,2-a]pyridin-6-yl)-7-(piperazin-1-yl)-2H-chromen-2-one]
EC (1.5-fold) [1]: < 0.1 µM
EC1.5x (concentration giving 1.5-fold Smn protein increase) (Smn protein): < 300 nM
maximum fold (Fold) increase of Smn protein (Smn protein): ***** (fold increase >1.65)

Cc1cc2oc(-c3cc4ccc(N5CCN(C)CC5)cc4oc3=O)cc2c(C)n1 [Compound 832, 3-(4,6-dimethylfuro[3,2-c]pyridin-2-yl)-7-(4-methylpiperazin-1-yl)-2H-chromen-2-one]
EC (1.5-fold) [1]: 1 to 3 µM
maximum fold (Fold) increase of Smn protein (Smn protein): * (maximum fold increase of ≤1.2)

Cc1cn2cc(-c3cc4ccc(N5CC(CN)C5)cc4oc3=O)nc2c(C)n1 [Compound 963, 7-[3-(aminomethyl)azetidin-1-yl]-3-(6,8-dimethylimidazo[1,2-a]pyrazin-2-yl)-2H-chromen-2-one]
EC (1.5-fold) [1]: 0.3 to 1 µM
maximum fold (Fold) increase of Smn protein (Smn protein): *** (fold increase between >1.35 and ≤1.5)

Cc1cn2cc(-c3cc4ccc(N5CC6(CC(N)C6)C5)cc4oc3=O)nc2c(C)n1 [Compound 977, 7-(6-amino-2-azaspiro[3.3]hept-2-yl)-3-(6,8-dimethylimidazo[1,2-a]pyrazin-2-yl)-2H-chromen-2-one]
EC (1.5-fold) [1]: 1 to 3 µM
maximum fold (Fold) increase of Smn protein (Smn protein): * (maximum fold increase of ≤1.2)
